According to patent US20030032662A1, “Micronized leflunomide” (priority 2000, published 2003):

Test: Particle size after micronizing in a micronizer
Assay type: physicochemical
Conditions: pure dry leflunomide micronized in a micronizer (Example 1)
Description: Pure dry leflunomide was micronized in a micronizer. The result was micronized leflunomide of a particle size of less than 5 micrometer.

For `Cc1oncc1C(=O)Nc1ccc(C(F)(F)F)cc1` [micronized leflunomide, N-(4′-trifluoromethylphenyl)-5-methylisoxazole-4-carboxamide], the particle size was “less than 5 micrometer”.
